The supplement of paper PMC10307832

Assays:
Assay in all cases: relative viability (nuclei count vs DMSO), 5 days (fraction); higher = more cells survive
ABC-1 = test system: ABC-1
Outline: (§1)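 Five library-drug doses in √10 steps were combined with a fixed anchor-drug dose, or a single drug was given alone, by pin tool to lung cancer cell lines in 1536-well plates the day after seeding. Nuclei were stained and counted after 5 days. Relative viability is the nuclei count in treated wells over that in vehicle wells, taken as the median of duplicate plates.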

CAL-12T = test system: CAL-12T
Outline: as §1

COR-L 105 = test system: COR-L 105
Outline: as §1

ChaGo-K-1 = test system: ChaGo-K-1
Outline: as §1

EMC-BAC-2 = test system: EMC-BAC-2
Outline: as §1

EPLC-272H = test system: EPLC-272H
Outline: as §1

HCC-15 = test system: HCC-15
Outline: as §1

HCC-78 = test system: HCC-78
Outline: as §1

HOP-62 = test system: HOP-62
Outline: as §1

LXF-289 = test system: LXF-289
Outline: as §1

NCI-H1666 = test system: NCI-H1666
Outline: as §1

NCI-H1755 = test system: NCI-H1755
Outline: as §1

NCI-H1915 = test system: NCI-H1915
Outline: as §1

NCI-H1975 = test system: NCI-H1975
Outline: as §1

NCI-H2023 = test system: NCI-H2023
Outline: as §1

NCI-H2085 = test system: NCI-H2085
Outline: as §1

NCI-H2126 = test system: NCI-H2126
Outline: as §1

NCI-H3122 = test system: NCI-H3122
Outline: as §1

NCI-H322M = test system: NCI-H322M
Outline: as §1

NCI-H358 = test system: NCI-H358
Outline: as §1

NCI-H441 = test system: NCI-H441
Outline: as §1

UMC-11 = test system: UMC-11
Outline: as §1

O=c1cc(-c2cccc3c2Sc2ccccc2S3)oc(N2CCOCC2)c1 + COc1cccc2cc(-c3nc([C@H]4CC[C@H](C(=O)O)CC4)n4ncnc(N)c34)[nH]c12 [OSI-027] (partner 0.5 µM)
relative viability (ABC-1; first compound 0.08 µM): 0.501 | relative viability (ABC-1; first compound 0.253 µM): 0.478 | relative viability (ABC-1; first compound 0.8 µM): 0.609 | relative viability (ABC-1; first compound 2.53 µM): 0.452 | relative viability (ABC-1; first compound 8 µM): 0.445 | relative viability (CAL-12T; first compound 0.08 µM): 0.671 | relative viability (CAL-12T; first compound 0.253 µM): 0.709 | relative viability (CAL-12T; first compound 0.8 µM): 0.407 | relative viability (CAL-12T; first compound 2.53 µM): 0.57 | relative viability (CAL-12T; first compound 8 µM): 0.297 | relative viability (COR-L 105; first compound 0.08 µM): 0.686 | relative viability (COR-L 105; first compound 0.253 µM): 0.707 | relative viability (COR-L 105; first compound 0.8 µM): 0.636 | relative viability (COR-L 105; first compound 2.53 µM): 0.686 | relative viability (COR-L 105; first compound 8 µM): 0.734 | relative viability (ChaGo-K-1; first compound 0.08 µM): 0.524 | relative viability (ChaGo-K-1; first compound 0.253 µM): 0.615 | relative viability (ChaGo-K-1; first compound 0.8 µM): 0.479 | relative viability (ChaGo-K-1; first compound 2.53 µM): 0.385 | relative viability (ChaGo-K-1; first compound 8 µM): 0.63 | relative viability (EMC-BAC-2; first compound 0.08 µM): 0.341 | relative viability (EMC-BAC-2; first compound 0.253 µM): 0.416 | relative viability (EMC-BAC-2; first compound 0.8 µM): 0.354 | relative viability (EMC-BAC-2; first compound 2.53 µM): 0.392 | relative viability (EMC-BAC-2; first compound 8 µM): 0.406 | relative viability (EPLC-272H; first compound 0.08 µM): 0.254 | relative viability (EPLC-272H; first compound 0.253 µM): 0.279 | relative viability (EPLC-272H; first compound 0.8 µM): 0.254 | relative viability (EPLC-272H; first compound 2.53 µM): 0.251 | relative viability (EPLC-272H; first compound 8 µM): 0.278 | relative viability (HCC-15; first compound 0.08 µM): 0.633 | relative viability (HCC-15; first compound 0.253 µM): 0.765 | relative viability (HCC-15; first compound 0.8 µM): 0.733 | relative viability (HCC-15; first compound 2.53 µM): 0.634 | relative viability (HCC-15; first compound 8 µM): 0.611 | relative viability (HCC-78; first compound 0.08 µM): 0.341 | relative viability (HCC-78; first compound 0.253 µM): 0.385 | relative viability (HCC-78; first compound 0.8 µM): 0.295 | relative viability (HCC-78; first compound 2.53 µM): 0.344 | relative viability (HCC-78; first compound 8 µM): 0.339 | relative viability (HOP-62; first compound 0.08 µM): 0.888 | relative viability (HOP-62; first compound 0.253 µM): 1.17 | relative viability (HOP-62; first compound 0.8 µM): 0.913 | relative viability (HOP-62; first compound 2.53 µM): 0.745 | relative viability (HOP-62; first compound 8 µM): 1.07 | relative viability (LXF-289; first compound 0.08 µM): 0.812 | relative viability (LXF-289; first compound 0.253 µM): 0.811 | relative viability (LXF-289; first compound 0.8 µM): 0.871 | relative viability (LXF-289; first compound 2.53 µM): 0.697 | relative viability (LXF-289; first compound 8 µM): 0.87 | relative viability (NCI-H1666; first compound 0.08 µM): 0.838 | relative viability (NCI-H1666; first compound 0.253 µM): 1.06 | relative viability (NCI-H1666; first compound 0.8 µM): 0.923 | relative viability (NCI-H1666; first compound 2.53 µM): 0.832 | relative viability (NCI-H1666; first compound 8 µM): 0.885 | relative viability (NCI-H1755; first compound 0.08 µM): 0.71 | relative viability (NCI-H1755; first compound 0.253 µM): 0.794 | relative viability (NCI-H1755; first compound 0.8 µM): 0.682 | relative viability (NCI-H1755; first compound 2.53 µM): 0.553 | relative viability (NCI-H1755; first compound 8 µM): 0.772 | relative viability (NCI-H1915; first compound 0.08 µM): 0.608 | relative viability (NCI-H1915; first compound 0.253 µM): 0.677 | relative viability (NCI-H1915; first compound 0.8 µM): 0.699 | relative viability (NCI-H1915; first compound 2.53 µM): 0.575 | relative viability (NCI-H1915; first compound 8 µM): 0.678 | relative viability (NCI-H1975; first compound 0.08 µM): 0.74 | relative viability (NCI-H1975; first compound 0.253 µM): 0.993 | relative viability (NCI-H1975; first compound 0.8 µM): 0.793 | relative viability (NCI-H1975; first compound 2.53 µM): 0.587 | relative viability (NCI-H1975; first compound 8 µM): 0.503 | relative viability (NCI-H2023; first compound 0.08 µM): 0.353 | relative viability (NCI-H2023; first compound 0.253 µM): 0.379 | relative viability (NCI-H2023; first compound 0.8 µM): 0.396 | relative viability (NCI-H2023; first compound 2.53 µM): 0.315 | relative viability (NCI-H2023; first compound 8 µM): 0.256 | relative viability (NCI-H2085; first compound 0.08 µM): 0.635 | relative viability (NCI-H2085; first compound 0.253 µM): 0.88 | relative viability (NCI-H2085; first compound 0.8 µM): 0.695 | relative viability (NCI-H2085; first compound 2.53 µM): 0.512 | relative viability (NCI-H2085; first compound 8 µM): 0.525 | relative viability (NCI-H2126; first compound 0.08 µM): 0.672 | relative viability (NCI-H2126; first compound 0.253 µM): 0.813 | relative viability (NCI-H2126; first compound 0.8 µM): 0.581 | relative viability (NCI-H2126; first compound 2.53 µM): 0.535 | relative viability (NCI-H2126; first compound 8 µM): 0.828 | relative viability (NCI-H3122; first compound 0.08 µM): 1.25 | relative viability (NCI-H3122; first compound 0.253 µM): 1.08 | relative viability (NCI-H3122; first compound 0.8 µM): 0.957 | relative viability (NCI-H3122; first compound 2.53 µM): 1.03 | relative viability (NCI-H3122; first compound 8 µM): 1.08 | relative viability (NCI-H322M; first compound 0.08 µM): 0.524 | relative viability (NCI-H322M; first compound 0.253 µM): 0.588 | relative viability (NCI-H322M; first compound 0.8 µM): 0.618 | relative viability (NCI-H322M; first compound 2.53 µM): 0.44 | relative viability (NCI-H322M; first compound 8 µM): 0.543 | relative viability (NCI-H358; first compound 0.08 µM): 0.836 | relative viability (NCI-H358; first compound 0.253 µM): 0.999 | relative viability (NCI-H358; first compound 0.8 µM): 0.815 | relative viability (NCI-H358; first compound 2.53 µM): 0.807 | relative viability (NCI-H358; first compound 8 µM): 0.869 | relative viability (NCI-H441; first compound 0.08 µM): 0.5 | relative viability (NCI-H441; first compound 0.253 µM): 0.813 | relative viability (NCI-H441; first compound 0.8 µM): 0.671 | relative viability (NCI-H441; first compound 2.53 µM): 0.645 | relative viability (NCI-H441; first compound 8 µM): 0.761 | relative viability (UMC-11; first compound 0.08 µM): 0.546 | relative viability (UMC-11; first compound 0.253 µM): 0.562 | relative viability (UMC-11; first compound 0.8 µM): 0.457 | relative viability (UMC-11; first compound 2.53 µM): 0.429 | relative viability (UMC-11; first compound 8 µM): 0.514
